Assay results published in patent US8981046B2, “Synthetic cell platforms and methods of use thereof” (The Regents of the University of California, priority 2007, dated 2015).

Assays:
[1] = test system: neural stem cells; assay: NSC adhesion and proliferation on peptide-modified IPNs; type: cell-based, rat
Description: Neural stem cells are typically cultured on surfaces consisting of a poly(styrene)-based material with a passively adsorbed, animal-derived extracellular matrix (ECM) protein such as laminin or fibronectin.^67, 69 However, both animal- and human-derived ECM or proteins likely contain variable splice and glycoforms, offer limited micro- and nano-scale control of solid-phase signaling, pose problems with lot to lot variability, and otherwise present problems for therapeutic application.^16, 70 The ability of a peptide-modified interpenetrating polymer network (IPN) synthesized from acrylamide (AAm), poly(ethylene glycol) monomethyl ether monomethacrylate (pEGMA), and acrylic acid (AAc) monomers to support NSC growth was explored. NSCs isolated from the adult rat hippocampus,^67 were seeded onto 15 amino-acid bone sialoprotein RGD peptide [bsp-RGD(15)]-modified IPNs at various cell densities over four orders of magnitude.
FIG. 3.a-d) Bright field images of neural stem cells grown on peptide-modified IPNs or laminin-I in proliferating media conditions (1.2 nM FGF-2). e) Growth curves for proliferation of neural stem cells as assayed by a total nucleic acid stain. Data represent mean±standard deviation of 3-5 samples. Surfaces not in the same group (*, §, †, or ‡) were statistically different from one another (p<0.05; ANOVA between groups with Tukey-Kramer Honestly Significant Difference post-hoc test).

[2] = test system: neural stem cells; assay: qRT-PCR marker expression / differentiation of NSCs on peptide-modified hydrogels; type: cell-based, rat
Description: Stem cells are defined not only by their self-renewal but also their ability to undergo differentiation into one or more phenotypes. […] Therefore, the synthetic IPN, displaying an integrin-binding peptide, was able to substitute for laminin in supporting NSC proliferation and differentiation.
The effects of varying peptide identity and density on NSC differentiation were explored.
The box plots summarize the distribution of points, where the thick line signifies the median and the ends of the box are the 25th and 75th quartiles.

[3] = test system: H1 hES cells; assay: H1 hES cell culture on peptide-conjugated IPN surfaces in NC-SFM; type: cell-based, human; settings: for hESC culture outcome (Oct4, survival): H1 cells, NC-SFM, peptide-conjugated IPN
Protocol: To take an important step towards a fully chemically defined microenvironment, H1 hES cells were cultured,^17 for which a serum-free, defined medium has been developed. In addition, this feeder-free system involves culturing cells on tissue culture polystyrene coated with Matrigel, an ECM mixture of predominantly […], collagen IV, and heparan sulfate.^19, 82 Cells were grown in non-conditioned, serum free medium (NC-SFM), which consists of X-VIVO 10 (Cambrex, Walkersville, Md.) medium supplemented with 0.5 ng/mL TGF-β1 and 80 ng/mL FGF-2 (Invitrogen).
Cultures on Matrigel consisted of Oct4^+ hESC colonies interspersed with differentiated, Oct4-stromal cells derived from the hESCs, as previously described (note that the hESCs can be selectively passaged by timing the enzymatic digest).^82 H1 cells were also cultured in the NC-SFM on bsp-RGD(15) conjugated IPN surfaces (identical to those in FIGS. 3-4). […] Both HSF6 cells on the sIPN (FIG. 7) and H1 cells on the IPN were able to maintain Oct4 expression for 3 passages (˜10 days).

[4] = test system: Akt; assay: Akt activation in neural stem cells on peptide hydrogels (Western blotting); type: cell-based, rat; settings: NSCs on biomimetic hydrogel
Description: The phosphoinositide-3 kinase (PI 3-kinase) signaling pathway, which can be activated by numerous cell surface receptors, has been implicated in regulating cell survival and proliferation in a number of contexts.^90-92 After ligation and activation of canonical receptors, phosphorylation of receptor tails on specific tyrosine residues recruits PI 3-kinase to the cell surface to phosphorylate phosphoinositide lipids. These lipids then recruit several kinases, including PDK1 and Akt. Phosphorylation of the latter by the former activates Akt, which then modulates a number of downstream effectors (such as Bad, mTOR, forkhead transcription factors, GSK-3β, and others) important in cell survival, proliferation, and other functions.^92, 93 Very importantly, PI 3-kinase and Akt signaling may be a general pathway important for stem cell proliferation and self-renewal. […] Finally, chemical or genetic inhibition of this pathway inhibits self-renewal, whereas overexpression of transducers in this pathway promotes self-renewal in a mitogen-independent fashion.
FIG. 8. […] Likewise relocalization of a PH-GFP genetic sensor to the cell surface acts as a sensor of PI 3-kinase signal activation after FGF-2 addition. An analogous genetic sensor of Akt based on FRET has been generated.^6

[5] = test system: neural stem cells; assay: NSC proliferation on peptide-grafted IPNs after 5 days (Cyquant); type: cell-based, rat; settings: for cell proliferation: Cyquant, normalized to cells seeded
Description: Cell proliferation was quantified on peptide-grafted IPN surfaces after 5 days with Cyquant. The cell number was normalized to the amount of cells seeded on the IPN surfaces.

[6] = test system: neural stem cells; assay: Initial NSC attachment on peptide-grafted IPNs (Cyquant, 6 hours); type: cell-based, rat; settings: various grafting concentrations
Protocol: IPNs were grafted with RGD, 7C-9, and 7C-24 peptides at various concentrations. After allowing neural stem cells attach to the surface for 6 hours, the amount of cells was quantified with Cyquant, a fluorescent DNA-binding dye.

[7] = test system: neural stem cells; assay: Flow cytometry binding of clonal peptide-displaying bacteria to neural stem cells; design: species or system rat; settings: clonal bacterial populations after third round of selection
Description: This technology has also been used to identify peptides capable of binding to the surface of adult neural stem cells. Both N- and C-terminal peptide display libraries were screened on NSCs, with the first two rounds selected through centrifugal pelleting of NSCs to isolate bacterial clones displaying binding peptides, and the third round selected through FACS. Following the third round, numerous peptide clones were sequenced (˜30 novel sequences determined to date).
Three different, validated peptide libraries were pooled to generate a large library (>10^10 independent clones) and were used for selection and screening.^79 These libraries include a random 15-mer (—X15—) fused to either the N- or C-terminus of the CPX display scaffold and an N-terminal constrained library of the form X2CX7CX2. The library has been made intrinsically fluorescent using a bicistronic expression vector to enable co-expression of a green fluorescent protein optimized for FACS.
The bacterial library was screened for binding peptides. For the first two cycles, screening was again conducted by co-sedimentation, where as many as 10^8 NSCs suspended via mechanical disruption in 0.5 mM EDTA as described^82 were incubated with 10^10 bacteria prior to several gentle centrifugations and rinses. The resulting mixture was added directly to bacterial media (LB) for expansion of the binding clones. The second cycle repeated this process with 10-fold fewer bacteria for higher stringency. In the third cycle, after incubation with 10^6 NSCs and washing, cells were sorted (as in FIGS. 5-6) using a DAKO-Cytomation MoFlo flow cytometer in the UC Berkeley Cancer Center to stringently isolate bacteria that are bound to NSCs. The resulting sorted bacteria were expanded. Plasmid DNA was isolated from a number of individual clones (at least 100)^79 and subjected to DNA sequencing to identify the peptide responsible for binding to the NSC surface.
Bacterial peptide display libraries were constructed, as described above, and tested for binding capacity to neural stem cells. Clonal populations of the bacterial peptide display libraries after the third round of selection were analyzed via flow cytometry to measure the binding capacity of the clones. Sequences of the clones were determined through DNA sequence of the plasmid expressed by the bacteria. Table 5 presents amino acid sequences of peptides and the binding capacity to NSCs of bacterial clones displaying the peptides.

[8] = peptide hydrogel vs laminin, proliferating or differentiating media

| Sequence | % NSCs with Bacteria [7] | also measured |
| --- | --- | --- |
| CGGNGEPRGDTYRAY [bsp-RGD(15), 15 amino-acid bone sialoprotein RGD peptide] |  | NSC proliferation ([1]; highest peptide density, vs laminin-coated surfaces, p<0.05): slightly faster cell proliferation than standard laminin-coated surfaces; cell adhesion on IPN with lower peptide density ([1]; lower or no bsp-RGD(15), proliferating media): cells did not adhere effectively; nestin expression (qRT-PCR) ([2]; 21 pmol·cm^−2 peptide hydrogel vs laminin, 1.2 nM FGF-2): statistically indistinguishable levels of nestin; GFAP expression (qRT-PCR) [2, 8]: equal levels; β-tubulin III expression (qRT-PCR) [2, 8]: equal levels; maintenance of Oct4 expression ([3]; H1 cells on the IPN (~10 days)): 3 passages; hESC culture outcome (Oct4, survival) [3]: high Oct4 levels in large hESC colonies; activation of Akt [4]: activation of Akt to a greater extent than a surface displaying the negative control bsp-RGE(15) peptide; cell proliferation [5]: much higher amount of cell proliferation than 7C-9 and 7C-24-grafted surfaces |
| CGGNGEPRGETYRAY [bsp-RGE(15), negative control peptide] |  | cell adhesion and morphology on peptide-modified IPN ([1]; proliferating media conditions (20 ng/ml FGF-2)): did not support attachment; neuronal differentiation / neuronal marker expression ([2]; as bsp-RGD(15) density was decreased and this peptide increased): neuronal differentiation decreased; hESC culture outcome (Oct4, survival) [3]: cells predominantly died; cell attachment [6]: below the detection limit of the assay; cell proliferation [5]: little or no cells detached |
| DHKFGLVMLNKYAYAG [Clone 15-2] | 75.9% |  |
| DLCTYGHLWLGNGRP [Clone 15-59] | 22.5% |  |
| ESCWYQIMYKCAN [Clone 7C-2] | 55.2% |  |
| ESGLKVMCMKYYCMA [Clone 15-52] | 63.3% |  |
| FWCIRGEYWVCDR [Clone 7C-12] | 64.5% |  |
| GECFYYVMNTCVW [Clone 7C-6] | 61.8% |  |
| GFVLVWSYTCRCWGK [Clone 15-50] | 64.9% |  |
| GGCRWYAKWVCVW [Co-3] | 75.7% |  |
| IWCGSRFGCWCKP [Clone 7C-5] | 65.6% |  |
| KLCCFDKGYYCMR [Clone 7C-9] | 71.3% | cell proliferation at similar surface peptide concentration ([5]; low peptide surface concentrations, vs RGD surfaces): slower proliferation |
| LCCESYICALCHY [Clone 7C-11] | 37.7% |  |
| LECPGESKYYCIY [Co-11] | 72.7% |  |
| LECTERGDFNCFV [Clone 7C-7] | 47.8% |  |
| LEDAMGWALSWGHIW [Clone 15-6] | 70.2% |  |
| LNCAMYNACIW [Clone 7C-14] | 54.5% |  |
| LVCNRQNPWVCYI [Co-23] | 71.1% |  |
| MYCERDSKYWCIH [Co-21] | 70.9% |  |
| QCCQLRGDAVCNC [Clone 7C-15] | 54.0% |  |
| QGCAFVTYWACIF [Co-16] | 71.9% |  |
| RLCCWKTQYFCEI [Co-20] | 70.9% |  |
| RRELVRMTDWVWVSG [Clone 15-32] | 70.4% |  |
| SDWSVLLSCERWYCI [Clone 15-16] | 63.9% |  |

| Sequence | % NSCs with Bacteria [7] | also measured |
| --- | --- | --- |
| SKCWGWTPYYCVA [Co-9] | 75.7% |  |
| SLCAAYNRWACIW [Co-1] | 73.8% |  |
| STCSWVSSYVCIM [Co-13] | 64.8% |  |
| VWCGMFGKRRCVT [Co-22] | 75.6% |  |
| WDCGKKNAWMCIW [Co-5] | 67.4% |  |
| WECAEESKFWCVF [Co-17] | 72.1% |  |
| WFCLLGRSAYCVR [Clone 7C-3] | 71.9% |  |
| WLCKGSNKYMCEW [Clone 7C-17] | 67.8% |  |
| WLCLDKNCMACVW [Clone 7C-8] | 68.8% |  |
| WMCSGVQPNACVW [Clone 7C-22] | 46.9% |  |
| WNCIKGSSWACVW [Clone 7C-21] | 75.5% |  |
| WQCGRFWCIHCLW [Co-19] | 50.6% |  |
| WRCLGDGYHACVR [Co-10] | 72.7% |  |
| WSCPKVNQYACFW [Co-2] | 74.8% |  |
| WTWESAFAGRWEVGD [Co-8] | 61.7% |  |
| WVCIWERFKSCNE [Clone 7C-20] | 65.7% |  |
| WVCLWRHRGDCSI [Co-12] | 74.3% |  |
| WVCNDLIHHFCVW [Co-15] | 70.9% |  |
| WVCNKLGVYACEY [Clone 7C-19] | 20.5% |  |
| WWCDMRGDSRCSG [Clone 7C-24] | 61.7% |  |
| WWCKKPEYWYCIW [Co-18] | 71.3% |  |
| WYCFRENKYVCVM [Clone 7C-1] | 75.2% |  |
| YMCMSRGDATCDV [Clone 7C-4] | 62.0% |  |
